What was measured:
[1] = tested on: CT26 colon adenocarcinoma cells; test: Tumor xenograft model in transgenic zebrafish; format: in vivo; details: 0.5 and 2.0 μmol/L in fish water, 7 days
[2] = biological target: DYRK3 (Homo sapiens, UniProt O43781); test: Z′-LYTE kinase inhibition assay
[3] = biological target: JNK1 (Homo sapiens, UniProt P45983); test: Z′-LYTE kinase inhibition assay
[4] = tested on: HUVECs; test: Transwell invasion assay; format: cell-based, human; details: driven by 50 ng/mL hVEGF-165; dose-dependent; 0.5 μmol/L P < 0.01; 5.0 and 50.0 μmol/L P < 0.001
[5] = biological target: SRC (Homo sapiens, UniProt P12931); test: Z′-LYTE kinase inhibition assay
[6] = biological target: CAMK2α (Homo sapiens, UniProt Q9UQM7); test: Z′-LYTE kinase inhibition assay
[7] = tested on: HUVECs; test: HUVEC tube formation assay; format: cell-based, human; details: induced by 50 ng/mL hVEGF-165; 0.5 and 5.0 μmol/L; vs. hVEGF-165 control, P < 0.01
[8] = biological target: CK1α (Homo sapiens, UniProt P48729); test: Z′-LYTE kinase inhibition assay
[9] = biological target: VEGFR3 (Homo sapiens, UniProt P35916); test: Z′-LYTE kinase inhibition assay
[10] = biological target: PKA (Homo sapiens, UniProt P17612); test: Z′-LYTE kinase inhibition assay
[11] = tested on: HUVECs; details: 5.0 μmol/L (P < 0.05), 50.0 μmol/L (P < 0.001) vs. hVEGF-165 treated control
[12] = tested on: A549 lung cancer xenograft; test: A549 lung cancer subcutaneous xenograft model; format: in vivo, Balb/c nude mice; details: for T/C / TGI: Day 21; for Tumor volume at Day 21 / area of CD31 (tumor micro-vessel density, IHC): mean ± SEM; for area of CD31 (tumor micro-vessel density, IHC): n = 3, control 3.38 ± 0.49
[13] = tested on: phosphorylation of VEGFR2 and ERK; test: Western blot, VEGF/VEGFR2/ERK signalling in HUVECs; format: cell-based, human; details: 5.0 μmol/L; induced by 50 ng/mL hVEGF 165 in HUVECs; P < 0.01
[14] = biological target: TAOK2 (Homo sapiens, UniProt Q9UL54); test: Z′-LYTE kinase inhibition assay
[15] = tested on: NCI-H520 lung cancer xenograft; test: NCI-H520 lung cancer subcutaneous xenograft model; format: in vivo, Balb/c nude mice; details: for T/C / TGI: Day 21; for Tumor volume at Day 21 / area of CD31 (tumor micro-vessel density, IHC): mean ± SEM; for area of CD31 (tumor micro-vessel density, IHC): n = 3, control 4.96 ± 0.62
[16] = biological target: CHK1 (Homo sapiens, UniProt O14757); test: Z′-LYTE kinase inhibition assay
[17] = tested on: phosphorylation of PDGFRβ and ERK; test: Western blot, PDGF/PDGFRβ/ERK signalling in HBVPs; format: cell-based, human; details: 0.5 and 5.0 μmol/L; induced by 50 ng/mL PDGF-BB in HBVPs
[18] = biological target: EphA2 (Homo sapiens, UniProt P29317); test: Z′-LYTE kinase inhibition assay
[19] = biological target: JAK2 (Homo sapiens, UniProt O60674); test: Z′-LYTE kinase inhibition assay
[20] = biological target: MST4 (Homo sapiens, UniProt Q9P289); test: Z′-LYTE kinase inhibition assay
[21] = tested on: patient-derived tumor (LI-03-0020) xenograft; test: Liver cancer patient-derived tumor xenograft; format: in vivo, Balb/c nude mice
[22] = tested on: HUVECs; test: VEGF-induced HUVECs proliferation; format: cell-based; details: Homo sapiens, HUVEC, 72 h, read-out: IC50 HUVECs
[23] = Pharmacokinetic study in beagles; format: in vivo; details: both, beagle, dog, plasma
[24] = biological target: p38α (Homo sapiens, UniProt Q16539); test: Z′-LYTE kinase inhibition assay
[25] = biological target: MAPKAPK2 (Homo sapiens, UniProt P49137); test: Z′-LYTE kinase inhibition assay
[26] = biological target: PDK1 (Homo sapiens, UniProt O15530); test: Z′-LYTE kinase inhibition assay
[27] = H&E staining of vital organs of treated mice; format: in vivo, nude mice; details: 100 and 200 mg/kg, p.o., QD × 3 weeks
[28] = liver cancer PDX model, 200 mg/kg oral QD, Day 21

Sequence of TAOK2 (Q9UL54 whole entry): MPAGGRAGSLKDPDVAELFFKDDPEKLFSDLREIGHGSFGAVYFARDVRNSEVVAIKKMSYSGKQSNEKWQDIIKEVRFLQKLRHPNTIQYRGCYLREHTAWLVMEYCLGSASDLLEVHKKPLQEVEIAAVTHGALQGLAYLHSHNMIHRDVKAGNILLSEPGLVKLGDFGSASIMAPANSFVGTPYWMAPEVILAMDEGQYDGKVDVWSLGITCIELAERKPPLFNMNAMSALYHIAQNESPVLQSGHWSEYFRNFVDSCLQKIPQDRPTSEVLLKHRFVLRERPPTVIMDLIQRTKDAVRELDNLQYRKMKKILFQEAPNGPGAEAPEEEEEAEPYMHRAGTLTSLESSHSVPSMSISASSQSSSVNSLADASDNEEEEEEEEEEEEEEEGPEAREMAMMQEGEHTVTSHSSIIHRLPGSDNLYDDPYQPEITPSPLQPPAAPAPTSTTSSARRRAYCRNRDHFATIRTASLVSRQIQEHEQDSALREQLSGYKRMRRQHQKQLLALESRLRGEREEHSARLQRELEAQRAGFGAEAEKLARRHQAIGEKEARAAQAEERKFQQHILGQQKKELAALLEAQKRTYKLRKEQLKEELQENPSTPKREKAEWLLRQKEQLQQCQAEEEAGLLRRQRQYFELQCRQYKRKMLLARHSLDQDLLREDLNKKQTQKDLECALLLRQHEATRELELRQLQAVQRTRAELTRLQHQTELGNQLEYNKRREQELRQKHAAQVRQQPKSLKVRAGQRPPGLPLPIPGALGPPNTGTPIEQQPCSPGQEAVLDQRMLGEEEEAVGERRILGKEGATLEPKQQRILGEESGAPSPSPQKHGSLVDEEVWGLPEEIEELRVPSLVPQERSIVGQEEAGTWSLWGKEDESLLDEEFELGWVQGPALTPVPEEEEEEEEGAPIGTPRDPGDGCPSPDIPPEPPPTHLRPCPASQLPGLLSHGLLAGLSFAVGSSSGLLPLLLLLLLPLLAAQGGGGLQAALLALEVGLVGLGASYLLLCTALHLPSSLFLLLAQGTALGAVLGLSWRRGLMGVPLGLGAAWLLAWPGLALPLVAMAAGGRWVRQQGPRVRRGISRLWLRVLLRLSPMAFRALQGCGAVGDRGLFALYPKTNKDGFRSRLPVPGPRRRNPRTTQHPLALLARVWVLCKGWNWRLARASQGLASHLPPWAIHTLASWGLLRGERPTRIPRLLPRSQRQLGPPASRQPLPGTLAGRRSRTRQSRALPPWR
Sequence of CHK1 (O14757 whole entry): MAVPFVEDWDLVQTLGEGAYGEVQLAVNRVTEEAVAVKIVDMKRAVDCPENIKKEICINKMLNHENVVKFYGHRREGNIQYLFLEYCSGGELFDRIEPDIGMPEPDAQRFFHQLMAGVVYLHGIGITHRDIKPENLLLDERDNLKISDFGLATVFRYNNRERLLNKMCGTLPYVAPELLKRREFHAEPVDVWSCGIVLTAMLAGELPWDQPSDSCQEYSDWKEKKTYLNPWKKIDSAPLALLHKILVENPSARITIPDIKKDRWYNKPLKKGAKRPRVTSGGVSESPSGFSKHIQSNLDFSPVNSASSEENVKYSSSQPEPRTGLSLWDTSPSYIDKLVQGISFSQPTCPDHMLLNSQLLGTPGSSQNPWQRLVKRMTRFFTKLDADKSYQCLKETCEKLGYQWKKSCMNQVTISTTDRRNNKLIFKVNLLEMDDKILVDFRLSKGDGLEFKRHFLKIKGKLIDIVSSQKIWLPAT
Sequence of JAK2 (O60674 whole entry): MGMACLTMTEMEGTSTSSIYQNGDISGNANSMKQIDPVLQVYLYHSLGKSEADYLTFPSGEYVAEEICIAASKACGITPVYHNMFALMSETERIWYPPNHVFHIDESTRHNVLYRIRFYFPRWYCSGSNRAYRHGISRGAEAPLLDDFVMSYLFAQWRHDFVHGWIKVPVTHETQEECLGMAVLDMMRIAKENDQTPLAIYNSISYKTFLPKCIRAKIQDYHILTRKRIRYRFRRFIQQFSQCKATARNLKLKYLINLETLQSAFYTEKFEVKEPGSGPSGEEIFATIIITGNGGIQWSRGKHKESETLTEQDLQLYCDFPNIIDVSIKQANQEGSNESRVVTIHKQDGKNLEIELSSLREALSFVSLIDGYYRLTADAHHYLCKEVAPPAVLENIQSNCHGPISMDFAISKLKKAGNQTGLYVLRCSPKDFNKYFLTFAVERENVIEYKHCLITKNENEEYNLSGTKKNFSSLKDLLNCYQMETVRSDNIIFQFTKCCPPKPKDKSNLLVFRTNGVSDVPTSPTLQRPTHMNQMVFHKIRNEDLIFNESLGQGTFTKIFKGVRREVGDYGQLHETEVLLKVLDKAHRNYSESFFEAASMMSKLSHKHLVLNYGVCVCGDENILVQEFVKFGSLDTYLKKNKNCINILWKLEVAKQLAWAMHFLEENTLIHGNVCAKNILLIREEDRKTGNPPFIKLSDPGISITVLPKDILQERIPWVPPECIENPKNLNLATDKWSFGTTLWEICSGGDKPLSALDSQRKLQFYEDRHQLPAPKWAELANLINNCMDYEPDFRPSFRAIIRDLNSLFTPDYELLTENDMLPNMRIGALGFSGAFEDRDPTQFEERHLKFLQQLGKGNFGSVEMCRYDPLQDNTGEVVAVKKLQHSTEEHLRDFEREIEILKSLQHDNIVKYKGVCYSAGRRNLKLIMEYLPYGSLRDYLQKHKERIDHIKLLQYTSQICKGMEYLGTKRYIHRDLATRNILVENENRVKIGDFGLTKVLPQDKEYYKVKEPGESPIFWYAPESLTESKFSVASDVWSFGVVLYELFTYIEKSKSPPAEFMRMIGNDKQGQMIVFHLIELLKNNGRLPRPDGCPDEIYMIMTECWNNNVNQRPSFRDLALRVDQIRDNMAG
Sequence of DYRK3 (O43781 whole entry): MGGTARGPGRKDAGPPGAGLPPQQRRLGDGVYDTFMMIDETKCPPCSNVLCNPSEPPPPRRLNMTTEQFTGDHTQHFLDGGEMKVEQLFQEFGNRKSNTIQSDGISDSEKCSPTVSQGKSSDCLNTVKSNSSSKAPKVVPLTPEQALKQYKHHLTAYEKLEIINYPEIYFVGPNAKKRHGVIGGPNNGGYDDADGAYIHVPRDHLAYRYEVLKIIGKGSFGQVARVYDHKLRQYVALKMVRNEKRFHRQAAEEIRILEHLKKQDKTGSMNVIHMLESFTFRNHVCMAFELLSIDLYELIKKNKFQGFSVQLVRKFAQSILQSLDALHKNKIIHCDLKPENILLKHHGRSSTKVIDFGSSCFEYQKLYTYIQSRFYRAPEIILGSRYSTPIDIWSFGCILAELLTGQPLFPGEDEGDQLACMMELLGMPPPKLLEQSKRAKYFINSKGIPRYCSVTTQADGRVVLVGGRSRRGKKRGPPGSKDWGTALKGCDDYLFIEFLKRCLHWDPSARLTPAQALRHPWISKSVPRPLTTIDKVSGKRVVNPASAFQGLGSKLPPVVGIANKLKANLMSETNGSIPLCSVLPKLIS
Sequence of VEGFR3 (P35916 25-1363): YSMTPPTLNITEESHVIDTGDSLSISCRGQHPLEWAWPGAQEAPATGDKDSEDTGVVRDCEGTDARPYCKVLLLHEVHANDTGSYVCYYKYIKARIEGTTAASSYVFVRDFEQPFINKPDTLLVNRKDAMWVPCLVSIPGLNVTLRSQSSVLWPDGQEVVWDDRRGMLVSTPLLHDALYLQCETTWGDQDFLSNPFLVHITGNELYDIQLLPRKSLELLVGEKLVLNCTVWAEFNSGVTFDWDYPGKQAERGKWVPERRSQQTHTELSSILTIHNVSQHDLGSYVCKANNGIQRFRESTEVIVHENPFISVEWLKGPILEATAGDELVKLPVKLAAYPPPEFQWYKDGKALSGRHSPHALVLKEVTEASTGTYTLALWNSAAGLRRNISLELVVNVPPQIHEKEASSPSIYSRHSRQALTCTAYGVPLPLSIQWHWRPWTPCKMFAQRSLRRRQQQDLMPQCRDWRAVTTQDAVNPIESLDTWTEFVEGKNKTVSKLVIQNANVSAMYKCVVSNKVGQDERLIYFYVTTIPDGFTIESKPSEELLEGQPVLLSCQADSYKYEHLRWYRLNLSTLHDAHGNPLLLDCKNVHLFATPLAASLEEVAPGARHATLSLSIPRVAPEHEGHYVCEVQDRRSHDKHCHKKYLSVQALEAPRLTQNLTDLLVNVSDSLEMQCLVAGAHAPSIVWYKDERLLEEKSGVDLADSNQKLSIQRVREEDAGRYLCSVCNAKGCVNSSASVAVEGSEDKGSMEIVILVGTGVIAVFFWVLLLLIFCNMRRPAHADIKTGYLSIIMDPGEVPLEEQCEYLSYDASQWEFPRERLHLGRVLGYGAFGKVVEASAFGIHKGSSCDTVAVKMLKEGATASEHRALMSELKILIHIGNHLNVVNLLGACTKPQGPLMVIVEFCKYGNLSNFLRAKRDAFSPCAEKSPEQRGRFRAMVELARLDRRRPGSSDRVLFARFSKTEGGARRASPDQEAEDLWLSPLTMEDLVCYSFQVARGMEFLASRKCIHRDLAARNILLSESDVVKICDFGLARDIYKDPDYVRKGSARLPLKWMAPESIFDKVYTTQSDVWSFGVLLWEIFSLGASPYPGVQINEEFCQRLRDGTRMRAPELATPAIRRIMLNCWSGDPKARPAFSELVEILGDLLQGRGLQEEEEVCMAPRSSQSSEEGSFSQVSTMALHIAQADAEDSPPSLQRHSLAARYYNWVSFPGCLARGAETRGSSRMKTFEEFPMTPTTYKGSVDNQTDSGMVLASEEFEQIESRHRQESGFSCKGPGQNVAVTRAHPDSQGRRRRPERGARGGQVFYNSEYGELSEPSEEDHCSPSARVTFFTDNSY

SMILES: COc1cc2nccc(Oc3ccc(NC(=S)NC4CC4)c(Cl)c3F)c2cc1C(N)=O [WXFL-152, 4-(3-Chloro-4-(3-cyclopropylthioureido)-2-fluorophenoxy)-7-methoxyquinoline-6-carboxamide]
- tumor angiogenesis and tumor size in zebrafish xenograft [1]: few tumors exhibiting angiogenesis and small tumors
- IC50 [2]: > 10 µM
- IC50 [3]: > 10 µM
- invasion of HUVECs [4]: significantly inhibited
- IC50 [5]: 2.65 µM
- IC50 [6]: > 10 µM
- tube formation of HUVECs [7]: significantly suppressed
- IC50 [8]: > 10 µM
- IC50 [9]: 0.0085 µM
- IC50 [10]: > 10 µM
- migration of HUVECs (wound healing) [11]: appreciably inhibited
- T/C ([12]; 50 mg/kg p.o. QD): 29%
- TGI ([12]; 50 mg/kg p.o. QD): 78%
- Tumor volume at Day 21 ([12]; 50 mg/kg p.o. QD): 430 ± 42 mm^3
- area of CD31 (tumor micro-vessel density, IHC) ([12]; 50 mg/kg): 2.20 ± 0.29
- T/C ([12]; 100 mg/kg p.o. QD): 27%
- TGI ([12]; 100 mg/kg p.o. QD): 80%
- Tumor volume at Day 21 ([12]; 100 mg/kg p.o. QD): 401 ± 38 mm^3
- area of CD31 (tumor micro-vessel density, IHC) ([12]; 100 mg/kg): 1.27 ± 0.48
- phosphorylation of VEGFR2 and ERK [13]: significantly suppressed
- IC50 [14]: > 10 µM
- T/C ([15]; 50 mg/kg p.o. QD): 58%
- TGI ([15]; 50 mg/kg p.o. QD): 51%
- Tumor volume at Day 21 ([15]; 50 mg/kg p.o. QD): 704 ± 107 mm^3
- area of CD31 (tumor micro-vessel density, IHC) ([15]; 50 mg/kg): 1.96 ± 0.05
- T/C ([15]; 100 mg/kg p.o. QD): 36%
- TGI ([15]; 100 mg/kg p.o. QD): 72%
- Tumor volume at Day 21 ([15]; 100 mg/kg p.o. QD): 478 ± 85 mm^3
- area of CD31 (tumor micro-vessel density, IHC) ([15]; 100 mg/kg): 1.83 ± 0.26
- IC50 [16]: > 10 µM
- phosphorylation of PDGFRβ and ERK [17]: significantly blocked
- IC50 [18]: > 3.33 µM
- IC50 [19]: > 10 µM
- IC50 [20]: > 10 µM
- area of CD31 (tumor micro-vessel density, IHC) ([21]; liver PDX model, 200 mg/kg, mean ± SEM, n = 3, control 0.30 ± 0.10): 0.19 ± 0.06
- T/C [21, 28]: 35%
- TGI [21, 28]: 76%
- Tumor volume at Day 21 ([21]; liver cancer PDX model, 200 mg/kg oral QD, mean ± SEM): 334 ± 69 mm^3
- IC50 [22]: 0.071 µM
- AUC(0-inf) ([23]; iv, 2 mg/kg): 5.13 ± 0.9 µM·h
- AUC(0-t) ([23]; iv, 2 mg/kg): 5.1 ± 0.9 µM·h
- Cmax ([23]; iv, 2 mg/kg): 4.36 ± 0.96 µM
- Vd ([23]; iv, 2 mg/kg): 1.45 ± 0.33 L/kg
- clearance ([23]; iv, 2 mg/kg): 14.5 ± 2.74 mL/min/kg
- half-life ([23]; iv, 2 mg/kg): 4.91 ± 2.18 h
- AUC(0-inf) ([23]; po, 10 mg/kg): 20.2 ± 20.2 µM·h
- AUC(0-t) ([23]; po, 10 mg/kg): 19.6 ± 20.2 µM·h
- Cmax ([23]; po, 10 mg/kg): 6.28 ± 6.57 µM
- Tmax ([23]; po, 10 mg/kg): 1.25 ± 0.612 h
- bioavailability ([23]; po, 10 mg/kg): 76.9%
- half-life ([23]; po, 10 mg/kg): 5.77 ± 2.17 h
- AUC(0-inf) ([23]; po, 30 mg/kg): 51.8 ± 62.3 µM·h
- AUC(0-t) ([23]; po, 30 mg/kg): 50 ± 58.8 µM·h
- Cmax ([23]; po, 30 mg/kg): 16.2 ± 16.5 µM
- Tmax ([23]; po, 30 mg/kg): 0.917 ± 0.585 h
- bioavailability ([23]; po, 30 mg/kg): 65.4%
- half-life ([23]; po, 30 mg/kg): 5.25 ± 1.03 h
- AUC(0-inf) ([23]; po, 30 mg/kg/day): 37.9 ± 31.9 µM·h
- AUC(0-t) ([23]; po, 30 mg/kg/day): 23.7 ± 16.1 µM·h
- Cmax at 7 days ([23]; po, 30 mg/kg/day): 6.97 ± 5.26 µM
- Tmax at 7 days ([23]; po, 30 mg/kg/day): 1.08 ± 0.736 h
- half-life ([23]; po, 30 mg/kg/day): 12.3 ± 12.6 h
- AUC(0-inf) ([23]; po, 100 mg/kg): 230 ± 51.5 µM·h
- AUC(0-t) ([23]; po, 100 mg/kg): 199 ± 90.5 µM·h
- Cmax ([23]; po, 100 mg/kg): 47.8 ± 20.8 µM
- Tmax ([23]; po, 100 mg/kg): 2.33 ± 0.816 h
- bioavailability ([23]; po, 100 mg/kg): 78%
- half-life ([23]; po, 100 mg/kg): 2.99 ± 0.7 h
- IC50 [24]: > 3.33 µM
- IC50 [25]: > 10 µM
- IC50 [26]: > 10 µM
- pathologic changes in heart, liver, spleen, lung and kidney (H&E) [27]: No significant pathologic changes

Reference: publication PMC7488503 (Acta Pharmaceutica Sinica. B, 2020)
